From US20030134859A1 (SANKYO COMPANY, LIMITED, priority 2000, published 2003)
Counter-ions that a name gives are not always drawn.

Test system: leptin production
Experiment: Enhancing activity for leptin production in adipocytes (ELISA)
Assay type: cell-based, rat
Conditions: leptin concentration as % of control group; for activity at 1 µM / activity at 0.1 µM / activity at 0.001 µM / activity at 0.01 µM: Rattus norvegicus, Adipocyte, 24 h, read-out: Facilitating activity to produce leptin; for activity at 0.001 µM: 1 nm; for Facilitating activity to produce leptin: 24 hr
Method in brief: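 Collagenase-dispersed epididymal adipocytes from 6-week-old male Wistar Imamichi rats, cultured in DMEM/F-12 (1:1) with test compound at final 1 µM, 100 nM, 10 nM or 1 nM (0.1% DMSO) for 24 h at 37 °C, 5% CO2. Leptin in filtrate measured by ELISA; activity = treated/DMSO-control leptin × 100 (%).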

| Structure (SMILES) | activity at 1 µM (1 μM) | activity at 0.1 µM (100 nm) | activity at 0.01 µM (10 nm) | other results |
| --- | --- | --- | --- | --- |
| COc1ccc(NC(=O)c2cc([N+](=O)[O-])ccc2Cl)cc1-c1ccccc1 [Example 6, N-(4-Methoxy-3-phenyl)phenyl-(2-chloro-5-nitrophenyl)carboxamide] | 108% | 111% | – | – |
| O=C(Nc1ccccc1-c1ccccc1)c1cc([N+](=O)[O-])ccc1Cl [Example 7, N-(2-Phenylphenyl)-(2-chloro-5-nitrophenyl)carboxamide] | – | 114% | – | – |
| CCOC(=O)c1ccc(NC(=O)c2cc([N+](=O)[O-])ccc2Cl)cc1 [Example 26, N-(4-Ethoxycarbonylphenyl)-(2-chloro-5-nitrophenyl)carboxamide] | – | 115% | – | – |
| CC(C)(C)c1cc(NC(=O)c2cc([N+](=O)[O-])ccc2Cl)cc(C(C)(C)C)c1O [Example 29, N-(3,5-Di-t-butyl-4-hydroxyphenyl)-(2-chloro-5-nitrophenyl)carboxamide] | 142% | – | – | – |
| Cc1ccccc1-c1csc(NC(=O)c2cc([N+](=O)[O-])ccc2Cl)n1 [Example 39, N-[4-(2-Methylphenyl)thiazol-2-yl]-(2-chloro-5-nitrophenyl)carboxamide] | 119% | 109% | – | – |
| O=C(Nc1cccnc1)c1cc([N+](=O)[O-])ccc1Cl [Example 50, N-(3-Pyridyl)-(2-chloro-5-nitrophenyl)carboxamide] | 109% | 119% | 124% | activity at 0.001 µM: 118% |
| Cc1ccc(NC(=O)c2cc([N+](=O)[O-])ccc2Cl)nc1 [Example 52, N-(5-Methylpyridin-2-yl)-(2-chloro-5-nitrophenyl)carboxamide] | – | – | – | activity at 0.001 µM: 111% |
| O=C(Nc1ccc2c3c(cccc13)CC2)c1cc([N+](=O)[O-])ccc1Cl [Example 54, N-(Acenaphthen-5-yl)-(2-chloro-5-nitrophenyl)carboxamide] | 113% | – | – | – |
| Cc1cc(Cl)nc(NC(=O)c2cc([N+](=O)[O-])ccc2Cl)n1 [Example 78, N-(4-Chloro-6-methylpyrimidin-2-yl)-(2-chloro-5-nitrophenyl)carboxamide] | 114% | 126% | – | – |
| Cn1c(NC(=O)c2cc([N+](=O)[O-])ccc2Cl)nc2ccccc21 [Example 82, N-(1-Methylbenzimidazol-2-yl)-(2-chloro-5-nitrophenyl)carboxamide] | 111% | 108% | – | – |
| O=C(Nc1cccc2nsnc12)c1cc([N+](=O)[O-])ccc1Cl [Example 86, N-(2,1,3-Benzothiazol-4-yl)-(2-chloro-5-nitrophenyl)carboxamide] | – | 110% | – | – |
| CC(C)(C)OC(=O)Nc1ccc(-c2ccc(NC(=O)c3cc([N+](=O)[O-])ccc3Cl)cc2)cc1 [Example 87, N-[4-[4-(tert-Butoxycarbonylamino)phenyl]phenyl]-(2-chloro-5-nitrophenyl)carboxamide] | 115% | 113% | – | – |
| Cc1cc(NS(=O)(=O)c2ccc(NC(=O)c3cc([N+](=O)[O-])ccc3Cl)cc2)no1 [Example 99] | – | – | – | Facilitating activity to produce leptin (1 μM): 113.9% |
| CCCCCCN(CCCCCC)c1ccc(NC(=O)c2cc([N+](=O)[O-])ccc2Cl)cc1 [Example 138, N-[4-(N,N-di-n-Hexylamino)phenyl]-(2-chloro-5-nitrophenyl)carboxamide] | 111% | – | – | – |
| CN(C)c1cccc(NC(=O)c2cc([N+](=O)[O-])ccc2Cl)c1 [Example 176, N-(3-Dimethylamino)phenyl-(2-chloro-5-nitrophenyl)carboxamide] | – | 110% | – | – |
| CCCCCCNc1ccc(-c2ccc(NC(=O)c3cc([N+](=O)[O-])ccc3Cl)cc2)cc1 [Example 195, N-[4-[4-(N-Hexylamino)phenyl]phenyl]-(2-chloro-5-nitrophenyl)carboxamide] | 120% | 123% | 114% | – |
| CCCCCCCCNc1ccc(-c2ccc(NC(=O)c3cc([N+](=O)[O-])ccc3Cl)cc2)cc1 [Example 219, N-[4-[4-(N-Octylamino)phenyl]phenyl]-(2-chloro-5-nitrophenyl)carboxamide] | 117% | 119% | 113% | – |
| CCCCCCCCN(CCCCCC)c1ccc(-c2ccc(NC(=O)c3cc([N+](=O)[O-])ccc3Cl)cc2)cc1 [Example 220, N-[4-[4-(N-Hexyl-N-octylamino)phenyl]phenyl]-(2-chloro-5-nitrophenyl)carboxamide mono-hydrochloride] | 111% | – | – | – |
| CCCCCCCCN(CCCC)c1ccc(-c2ccc(NC(=O)c3cc([N+](=O)[O-])ccc3Cl)cc2)cc1 [Example 222, N-[4-[4-(N-Butyl-N-octylamino)phenyl]phenyl]-(2-chloro-5-nitrophenyl)carboxamide] | 114% | 109% | 110% | – |
| CCCCCCCCN(CCCC)c1ccc(-c2ccc(NC(=O)c3cc([N+](=O)[O-])ccc3Cl)cc2)cc1.Cl [Example 223, N-[4-[4-(N-Butyl-N-octylamino)phenyl]phenyl]-(2-chloro-5-nitrophenyl)carboxamide mono-hydrochloride] | – | – | – | Facilitating activity to produce leptin (1 μM): 115.9%; Facilitating activity to produce leptin (10 nm): 109.0%; Facilitating activity to produce leptin (100 nm): 115.2% |
| CCCCCCCCN(CCC)c1ccc(-c2ccc(NC(=O)c3cc([N+](=O)[O-])ccc3Cl)cc2)cc1 [Example 224, N-[4-[4-(N-Octyl-N-propylamino)phenyl]phenyl]-(2-chloro-5-nitrophenyl)carboxamide] | 113% | 112% | 110% | – |
| CCCCCCCCN(CC)c1ccc(-c2ccc(NC(=O)c3cc([N+](=O)[O-])ccc3Cl)cc2)cc1 [Example 225, N-[4-[4-(N-Ethyl-N-octylamino)phenyl]phenyl]-(2-chloro-5-nitrophenyl)carboxamide] | 117% | 108% | 107% | – |
| O=C(Nc1ccc(N2CCN(C(=O)c3ccncc3)CC2)cc1)c1cc([N+](=O)[O-])ccc1Cl [Example 228, N-[4-[4-(Pyridin-4-ylcarbonyl)piperazin-1-yl]phenyl]-(2-chloro-5-nitrophenyl)carboxamide] | 112% | 122% | 119% | – |
| O=C(Nc1ccc(CCO)cc1)c1cc([N+](=O)[O-])ccc1Cl [Example 230, N-[4-(2-Hydroxyethyl)phenyl]-(2-chloro-5-nitrophenyl)carboxamide] | – | – | 110% | – |
| O=C(Nc1ccc(-n2ccnc2)cc1)c1cccc(NC(=O)c2cc([N+](=O)[O-])ccc2Cl)c1 [Example 231, N-[[3-[4-(Imidazol-1-yl)phenyl]aminocarbonyl]phenyl]-(2-chloro-5-nitrophenyl)carboxamide] | – | 155% | 128% | – |
| Nc1nc(-c2cccc(NC(=O)c3cc([N+](=O)[O-])ccc3Cl)c2)cs1 [Example 233, N-[3-(2-Amiothiazol-4-yl)phenyl]-(2-chloro-5-nitrophenyl)carboxamide] | – | 121% | 112% | – |
| CS(=O)(=O)N(c1ccc(-c2ccc(NC(=O)c3cc([N+](=O)[O-])ccc3Cl)cc2)cc1)S(C)(=O)=O [Example 235, N-[4-[4-(N,N-Dimethanesulfonylamino)phenyl]phenyl]-(2-chloro-5-nitrophenyl)carboxamide] | 143% | 121% | 111% | – |
